US20230346893A1, “Methods and Compositions for Preventing or Minimizing Epithelial-Mesenchymal Transition” (Innovon Pharmaceuticals Inc., priority 2016, published 2023)

Tests used:
[1] = tested on: HK-2 cells; experiment: TGF-β-induced collagen 1 mRNA expression (EMT marker) in HK-2 cells, quantitative real-time PCR; format: cell-based, human; conditions: for Effect on expression of collagen in TGF-β-induced HK-2 cells (in words): alone or formulated with albumin, concentrations of Table 1; for Changes in collagen mRNA expression (relative to TGF-β-treated cells): fatty acid concentration 5.0 × 10^−4M, TGF-β 10 ng/ml
Method: HSA was dissolved in PBS to obtain a concentration of 6.6% (6.6 g/100 ml), and was filtered using a 0.2 μm filter. 75 μl of sodium octanoate or sodium decanoate 10 mM was mixed with 75 μl of HSA 6.6% (without vortex), and incubated 10 min at room temperature. 100 μL of this mixture was used in the assay of Example 4 in a final volume of 1 ml (dilution 1:10).
Analysis was undertaken to determine the effect of various compositions on TGF-β-induced collagen 1 expression, which is a marker of EMT, on immortalized human proximal tubule epithelial cells (HK-2 cells). HK-2 cells were treated with TGF-β (an inducer of EMT) at a concentration of 10 ng/ml. Expression of the EMT marker collagen 1 mRNA was determined by quantitative real-time PCR.
(§1) Real-Time PCR was using human TaqMan Gene Expression Assay normalized to human GAPDH endogenous control. Reference is TGF-β1 control (RQ=1). The * and ** mean a p value of 0.05 and 0.01 respectively, compared to reference. Tested concentration of the mixture of sodium octanoate and sodium decanoate is 500 μM. The number of experiments is 3 (n=3).

[2] = tested on: human microvascular endothelial cells (HMEC); experiment: Collagen 1a1 mRNA expression (EndoMT/EMT marker) in TGF-β induced HMEC; format: cell-based; conditions: 500 μM; both in presence of albumin (With HSA) or absence of albumin (No HSA); n=3
Method: Endothelial to mesenchymal transition (EndoMT), which is included in the definition of the expression EMT as used in the present description, can be induced by transforming growth factor (TGF-β). […] Real-Time PCR was using human TaqMan Gene Expression Assay normalized to human GAPDH endogenous control. Reference is TGF-β1 control (RQ=1). The ** and *** mean a p value of 0.01 and 0.001 respectively, compared to reference. Tested concentration of sodium octanoate and sodium decanoate is 500 μM. The number of experiments is 3 (n=3).

[3] = tested on: human hepatocellular carcinoma cell line HepG2; experiment: Collagen 1a1 mRNA expression (EMT marker) in TGF-β induced HepG2; format: cell-based; conditions: 500 μM; both in presence of albumin (With HSA) or absence of albumin (No HSA); n=3
Method: as §1, with “*, **” for “*”, “****” for “**”, “0.05, 0.01” for “0.05”, “0.0001” for “0.01”, “concentration” for “concentration of the mixture”

[4] = tested on: human lung epithelial cell A549; experiment: Collagen 1a1 mRNA expression (EMT marker) in TGF-β induced A549; format: cell-based; conditions: 500 μM; both in presence of albumin (With HSA) or absence of albumin (No HSA); n=3
Method: as §1, with “***” for “*”, “****” for “**”, “0.001” for “0.05”, “0.0001” for “0.01”, “concentration” for “concentration of the mixture”

[5] = tested on: PC-3 cells; experiment: Scratch assay, migration/invasion of mitomycin-treated EGF-induced PC-3 cells; format: cell-based, human; conditions: EGF 50 ng/mL + Mitomycin C 10 μg/mL, 24 h; for EGF-induced PC-3 migration or invasion (FIG. 7, in words): with and without albumin
Text: The present experiment exemplifies EMT analysis of cancer cells through invasion/migration of PC-3 cell in a “scratch assay”. This assay is based on the observation that, upon creation of a new artificial gap, so called ‘scratch’, on a confluent cell monolayer, the cells on the edge of the newly created gap will move toward the opening to close the scratch. EGF ([…]) was used to induce the migratory/invasion of PC-3 cells into the scratch. Briefly, culture-inserts are placed in a 24-well cell culture plate. PC-3 cells are seeded in culture-inserts and are incubated overnight at 37° C. in a CO2 incubator. Cells are then starved with serum-free medium for another 24 hours. The insert is removed, leaving a visible 500 μm cell-free gap. Cells were treated for 24 h with EGF at 50 ng/mL and Mitomycin C at 10 μg/mL (Mito+EGF) and with a pro-EMT agent, sodium octanoate (Mito+EGF+sodium octanoate) or an anti-EMT agent, sodium decanoate (Mito+EGF+sodium decanoate), with HSA (second row in FIG. 7) and without HSA (first row in FIG. 7). Pictures are taken at 1 h post-treatment as a confluence control for each group. After 24 h, cells are fixed with Crystal Violet staining and air dried before 24 h post treatment pictures are taken.

[6] = tested on: HK-2 cells; experiment: TGF-β-induced collagen 1 mRNA expression (EMT marker) in HK-2 cells, quantitative real-time PCR; format: cell-based, human
[7] = fatty acid concentration 2.5 × 10^−4M, TGF-β 10 ng/ml

SMILES: CCCCCCCC(=O)[O-].[Na+] [Sodium Octanoate, reference compound]
- Effect on expression of collagen in TGF-β-induced HK-2 cells (in words) [1]: expression of collagen was increased (or stimulated)
- Changes in collagen mRNA expression (relative to TGF-β-treated cells) [1]: 24.1% of increase
- Mesenchymal transition induced by TGF-β (collagen 1a1 mRNA expression, FIG. 4, in words) [2]: contrarily
- Mesenchymal transition induced by TGF-β (collagen 1a1 mRNA expression, FIG. 5, in words) [3]: contrarily
- Mesenchymal transition induced by TGF-β (collagen 1a1 mRNA expression, FIG. 6, in words) [4]: no significant results
- EGF-induced PC-3 migration (FIG. 7, in words) ([5]; combined with albumin): migration is increased
- EGF-induced PC-3 migration or invasion (FIG. 7, in words) [5]: does not inhibit the cell migration
- Changes in collagen mRNA expression (relative to TGF-β-treated cells) [6, 7]: 42.2% of increase

SMILES: CCCCCCCCCCCCCC(=O)OCC(COC(=O)CCCCCCCCCCCCC)OC(=O)CCCCCCCCCCCCC [Trimyristin]
- Changes in collagen mRNA expression (relative to TGF-β-treated cells) ([6]; triglyceride concentration 5%): 52.3% of decrease

SMILES: CCCCCCCCCC(=O)[O-].[Na+] [Sodium Decanoate]
- Effect on expression of collagen in TGF-β-induced HK-2 cells (in words) [1]: decrease (or inhibit) the expression of collagen
- Changes in collagen mRNA expression (relative to TGF-β-treated cells) [1]: 103.4% of decrease
- Mesenchymal transition induced by TGF-β (collagen 1a1 mRNA expression, FIG. 4, in words) [2]: reduced significantly the mesenchymal transition
- Mesenchymal transition induced by TGF-β (collagen 1a1 mRNA expression, FIG. 5, in words) [3]: reduced significantly the mesenchymal transition
- Mesenchymal transition induced by TGF-β (collagen 1a1 mRNA expression, FIG. 6, in words) [4]: reduced significantly the mesenchymal transition
- EGF-induced PC-3 migration or invasion (FIG. 7, in words) [5]: inhibition of the EGF-induced PC-3 migration or invasion
- Changes in collagen mRNA expression (relative to TGF-β-treated cells) [6, 7]: 66.6% of decrease

SMILES: CCCCCCCCC(=O)O [Nonanoic Acid]
- Effect on expression of collagen in TGF-β-induced HK-2 cells (in words) [1]: inhibited the expression of collagen
- Changes in collagen mRNA expression (relative to TGF-β-treated cells) ([6]; fatty acid concentration 6.3 × 10^−7M, TGF-β 10 ng/ml): 51.4% of decrease

SMILES: CCCCCCCCCCC(=O)O [Undecanoic Acid]
- Effect on expression of collagen in TGF-β-induced HK-2 cells (in words) [1]: inhibited the expression of collagen
- Changes in collagen mRNA expression (relative to TGF-β-treated cells) ([6]; fatty acid concentration 2.7 × 10^−7M, TGF-β 10 ng/ml): 120.95% of decrease

SMILES: CCCCCCCCCC(=O)OCC(COC(=O)CCCCCCCCC)OC(=O)CCCCCCCCC [Tricaprin]
- Changes in collagen mRNA expression (relative to TGF-β-treated cells) ([6]; triglyceride concentration 5%): 120.4% of decrease

SMILES: CCCCCCCCCCCC(=O)[O-].[Na+] [Sodium Laurate]
- Effect on expression of collagen in TGF-β-induced HK-2 cells (in words) [1]: inhibited the expression of collagen
- Changes in collagen mRNA expression (relative to TGF-β-treated cells) ([6]; fatty acid concentration 1.0 × 10^−4M, TGF-β 10 ng/ml): 113.7% of decrease

SMILES: CCCCCCCCCCCC(=O)OCC(COC(=O)CCCCCCCCCCC)OC(=O)CCCCCCCCCCC [Trilaurin]
- Changes in collagen mRNA expression (relative to TGF-β-treated cells) ([6]; triglyceride concentration 5%): 84.6% of decrease

SMILES: CCCCCCCCCC(=O)O [Decanoic Acid]
- Changes in collagen mRNA expression (relative to TGF-β-treated cells) ([6]; fatty acid concentration 5.8 × 10^−7M, TGF-β 10 ng/ml): 105.4% of decrease
